Counter-ions that a name gives are not always drawn. ± gives the standard error.
Key:
621-102 (TSC2-deficient) = assay: relative viability vs DMSO; higher = less cytotoxic; conditions: serum: 10% FBS, 72 h
621-103 (TSC2-rescued) = assay: as above; conditions: serum: 10% FBS, 72 h
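Also: immortalized renal angiomyolipoma cells stably carrying empty vector or TSC2, dosed in 384-well plates in DMEM, viability normalized to vehicle-treated wells within each plate.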

Structure (SMILES) | relative viability (621-102 (TSC2-deficient); 0.0001 µM) [%] | relative viability (621-102 (TSC2-deficient); 0.001 µM) [%] | relative viability (621-102 (TSC2-deficient); 0.01 µM) [%] | relative viability (621-102 (TSC2-deficient); 0.1 µM) [%] | relative viability (621-102 (TSC2-deficient); 1 µM) [%] | relative viability (621-102 (TSC2-deficient); 10 µM) [%] | relative viability (621-103 (TSC2-rescued); 0.0001 µM) [%] | relative viability (621-103 (TSC2-rescued); 0.001 µM) [%] | relative viability (621-103 (TSC2-rescued); 0.01 µM) [%] | relative viability (621-103 (TSC2-rescued); 0.1 µM) [%] | relative viability (621-103 (TSC2-rescued); 1 µM) [%] | relative viability (621-103 (TSC2-rescued); 10 µM) [%]
CNC(=O)c1cc(COc2nnc(Nc3ccc(Cl)cc3)c3ccoc23)ccn1 [Telatinib (BAY57-9352)] | 94.64 ± 0.47 | 95.1 ± 4.9 | 83.7 ± 2.7 | 94.8 ± 1.5 | 84.3 ± 1.3 | 48.4 ± 3.9 | 114 ± 2.4 | 103.1 ± 0.34 | 100 ± 2.4 | 108 ± 2 | 104 ± 1.8 | 55.8 ± 4.5
CCCc1nc2c(C)cc(-c3nc4ccccc4n3C)cc2n1Cc1ccc(-c2ccccc2C(=O)O)cc1 [Telmisartan] | 104 ± 2.5 | 104 ± 1.6 | 103 ± 2.6 | 105 ± 1.2 | 112 ± 6.6 | 113.2 ± 0.47 | 101 ± 2.7 | 97.8 ± 4.9 | 95.37 ± 0.79 | 103.34 ± 0.025 | 101 ± 4.2 | 107 ± 2.6
C[C@H](Cn1cnc2c(N)ncnc21)OCP(=O)(O)O [Tenofovir] | 66.9 ± 0.97 | 73.2 ± 1.9 | 75.6 ± 11 | 71.7 ± 5 | 70.8 ± 6.7 | 60.2 ± 5.8 | 102 ± 5.5 | 102 ± 1.9 | 103 ± 5.3 | 109 ± 4.2 | 94 ± 7.9 | 92.6 ± 4.3
CN(C/C=C/C#CC(C)(C)C)Cc1cccc2ccccc12 [Terbinafine HCl] | 96.9 ± 2.1 | 97 ± 1.5 | 92 ± 0.96 | 94.1 ± 2.5 | 101 ± 3 | 91.3 ± 3.5 | 101 ± 3.3 | 99.3 ± 5.4 | 104 ± 2.1 | 101 ± 1.3 | 101 ± 1.3 | 97.22 ± 0.58
CCC(=O)O[C@H]1CC[C@H]2[C@@H]3CCC4=CC(=O)CC[C@]4(C)[C@H]3CC[C@]12C [Testosterone propionate (Agovirin)] | 104 ± 2.2 | 104 ± 1.2 | 98.7 ± 3.7 | 104 ± 1.1 | 104 ± 2.2 | 103 ± 4.2 | 109 ± 3.1 | 105 ± 1.9 | 104 ± 1.2 | 98.7 ± 2.8 | 102.1 ± 0.64 | 87.6 ± 1.6
CCCCNc1ccc(C(=O)OCCN(C)C)cc1 [Tetracaine HCl] | 113 ± 2.6 | 105 ± 2.3 | 100 ± 3.7 | 102 ± 3.7 | 102 ± 3.2 | 105 ± 1.1 | 72.9 ± 4.8 | 91.42 ± 0.14 | 90.6 ± 5.6 | 103 ± 6.7 | 78.5 ± 6.8 | 74.1 ± 2.6
C[N+]1(C)[C@@H]2C[C@@H](OC(=O)C(O)(c3cccs3)c3cccs3)C[C@H]1[C@@H]1O[C@@H]12 [Tiotropium Bromide hydrate] | 119 ± 6 | 110 ± 3.6 | 116.3 ± 0.16 | 112.5 ± 0.9 | 116 ± 1.3 | 117.1 ± 0.39 | 77.6 ± 0.97 | 97.55 ± 0.64 | 105.9 ± 0.43 | 100 ± 2.9 | 103 ± 3.4 | 103 ± 2.6
C[N+]1(C)[C@@H]2C[C@@H](OC(=O)C(O)(c3cccs3)c3cccs3)C[C@H]1[C@@H]1O[C@@H]12 [Tiotropium] | 119 ± 3.2 | 114 ± 4.8 | 115 ± 4.8 | 111 ± 2.6 | 117 ± 4.4 | 112.5 ± 1.1 | 82.2 ± 1.7 | 96 ± 3.8 | 103.3 ± 0.58 | 96.8 ± 4.6 | 102.87 ± 0.086 | 100.4 ± 0.9
O=c1oc2cc(O)ccc2s1 [Tioxolone] | 103 ± 7.6 | 105.7 ± 0.97 | 105 ± 4 | 94.8 ± 1.4 | 104 ± 2.6 | 99.31 ± 0.92 | 71.1 ± 7.9 | 80 ± 6.3 | 75.42 ± 0.21 | 80.9 ± 4.5 | 71.5 ± 8.5 | 60.9 ± 5
O=c1n(CCCN2CCN(c3cccc(Cl)c3)CC2)nc2ccccn12 [Trazodone HCl] | 103 ± 1.2 | 103 ± 1.8 | 105 ± 2.1 | 99.8 ± 4.6 | 107 ± 1.8 | 103 ± 4.7 | 77.1 ± 6.5 | 84.3 ± 2.8 | 84.8 ± 4 | 86.6 ± 3.6 | 68.2 ± 3.2 | 63.7 ± 7.5
CC(/C=C/C(=O)NO)=C\[C@@H](C)C(=O)c1ccc(N(C)C)cc1 [Trichostatin A] | 113.6 ± 0.35 | 117 ± 1.7 | 117.6 ± 0.42 | 104.3 ± 0.83 | 110 ± 1.2 | 74.9 ± 3.8 | 100.8 ± 0.21 | 101 ± 1.4 | 98.31 ± 0.47 | 99.71 ± 0.22 | 96.9 ± 1.4 | 44.8 ± 2.1
C[C@]12CC[C@H]3[C@@H](CC[C@@]45O[C@@H]4C(O)=C(C#N)C[C@]35C)[C@@H]1CC[C@@H]2O [Trilostane] | 104 ± 4.1 | 94 ± 6 | 93.7 ± 0.94 | 101 ± 2.1 | 98.3 ± 5.8 | 99.2 ± 5 | 102 ± 1.8 | 106.6 ± 0.25 | 106.2 ± 0.28 | 101 ± 2.7 | 102.8 ± 0.34 | 100 ± 1.9
CN1[C@@H]2CC[C@H]1C[C@@H](OC(=O)c1c[nH]c3ccccc13)C2 [Tropisetron HCl] | 82.2 ± 3.4 | 94 ± 3.9 | 99.6 ± 3.9 | 106 ± 2 | 99.47 ± 0.15 | 93.3 ± 1.3 | 89.7 ± 3 | 96.7 ± 2.6 | 102 ± 2.4 | 95.48 ± 0.32 | 106.6 ± 0.86 | 84.7 ± 1.7
O=C(O[C@H]1C[C@H]2CC[C@@H](C1)[N+]21CCCC1)C(O)(c1ccccc1)c1ccccc1 [Trospium chloride (Sanctura)] | 116 ± 2.6 | 99.2 ± 1.8 | 110 ± 5.9 | 95.4 ± 6.1 | 112 ± 5 | 110 ± 3.5 | 82.71 ± 0.81 | 91.5 ± 2.9 | 93.15 ± 0.86 | 102 ± 3.1 | 98.6 ± 5.3 | 92.1 ± 4.1
CN1CCc2c(c3ccccc3n2Cc2ccc(C(=O)NO)cc2)C1 [Tubastatin A HCl] | 73.7 ± 1.7 | 91.6 ± 2.8 | 85.5 ± 1 | 90.1 ± 3.6 | 82.6 ± 2.3 | 75.4 ± 2.7 | 101 ± 2.1 | 102 ± 2.5 | 101 ± 3.4 | 100 ± 2.9 | 98.48 ± 0.54 | 90.6 ± 1.5
N#CC(=C(/N)Sc1ccccc1N)/C(C#N)=C(\N)Sc1ccccc1N [U0126-EtOH] | 105 ± 3.4 | 103 ± 1.3 | 103 ± 2.5 | 103 ± 1.1 | 99.47 ± 0.83 | 93.3 ± 4.4 | 105 ± 2.4 | 101 ± 1.1 | 99.9 ± 1.5 | 101 ± 2 | 100.6 ± 0.44 | 90.4 ± 1.6
NC(=O)c1cccc(-c2cccc(OC(=O)NC3CCCCC3)c2)c1 [URB597] | 104.9 ± 0.41 | 107 ± 7 | 109.5 ± 0.46 | 98.4 ± 2.9 | 99.6 ± 4.4 | 92.7 ± 5.8 | 103 ± 3.1 | 106 ± 3.3 | 103 ± 1.4 | 106 ± 2.8 | 104 ± 4 | 112.8 ± 0.77
CC(C)(C)C#Cc1cc(N(C(=O)[C@H]2CC[C@H](C)CC2)[C@H]2CC[C@H](O)CC2)c(C(=O)O)s1 [VX-222] | 109 ± 1.1 | 117.11 ± 0.037 | 111 ± 2 | 111 ± 1.3 | 103 ± 4.3 | 106 ± 4.4 | 105.5 ± 0.52 | 102.7 ± 0.81 | 100 ± 1.2 | 99.76 ± 0.98 | 104 ± 4.7 | 105.42 ± 0.075
NC(=O)c1ccc(N(C(N)=O)c2c(F)cccc2F)nc1-c1ccc(F)cc1F [VX-702] | 107 ± 1.9 | 109 ± 1.9 | 96.7 ± 1.6 | 98.6 ± 1.4 | 111.1 ± 0.41 | 104 ± 4 | 101.5 ± 0.42 | 99.8 ± 1.8 | 99.92 ± 0.12 | 99.4 ± 1.5 | 96.56 ± 0.13 | 99.1 ± 1.8
O=c1ncn2nc(Sc3ccc(F)cc3F)ccc2c1-c1c(Cl)cccc1Cl [VX-745] | 106 ± 5.1 | 112 ± 5.5 | 107 ± 1.1 | 104 ± 2.1 | 106 ± 4 | 93.3 ± 3.9 | 99.1 ± 1 | 101 ± 1.2 | 99.4 ± 1.5 | 100 ± 1.5 | 99.42 ± 0.31 | 98.127 ± 0.049
CCO[C@@H]1OC(=O)C[C@@H]1NC(=O)[C@@H]1CCCN1C(=O)[C@@H](NC(=O)c1ccc(N)c(Cl)c1)C(C)(C)C [VX-765] | 109 ± 0.74 | 105 ± 4.9 | 116 ± 3.2 | 108 ± 4.6 | 101 ± 4 | 106 ± 1.8 | 111 ± 2.9 | 95.9 ± 4.8 | 101 ± 4.6 | 105 ± 6.8 | 101.8 ± 0.69 | 102 ± 4.9
CC(C)(C)c1cc(C(C)(C)C)c(NC(=O)c2c[nH]c3ccccc3c2=O)cc1O [VX-770] | 97.8 ± 4.5 | 104 ± 5.4 | 116 ± 2.3 | 119 ± 3.2 | 111 ± 3.6 | 59.3 ± 16 | 101 ± 4.3 | 117 ± 6.1 | 114 ± 4.1 | 110 ± 3.3 | 112 ± 2.9 | 32.3 ± 8.3
CCCCC(=O)N(Cc1ccc(-c2ccccc2-c2nnn[nH]2)cc1)[C@H](C(=O)O)C(C)C [Valsartan] | 85.7 ± 5 | 113 ± 4.4 | 117.3 ± 1 | 117 ± 5.9 | 107 ± 1.1 | 104 ± 1.3 | 101 ± 3.4 | 118.1 ± 0.48 | 115 ± 1.9 | 114 ± 6.2 | 110.2 ± 0.73 | 115 ± 2.4
COc1cc2/c(=N/c3ccc(Br)cc3F)nc[nH]c2cc1OCC1CCN(C)CC1 [Vandetanib] | 94.4 ± 4.3 | 101 ± 3.8 | 109 ± 3.6 | 115 ± 1.7 | 102 ± 1.1 | 33.9 ± 2.9 | 102 ± 2.5 | 99.63 ± 0.8 | 98.84 ± 0.35 | 97.74 ± 0.94 | 98.3 ± 0.93 | 11.4 ± 1.8
CCCc1nc(C)c2c(=O)nc(-c3cc(S(=O)(=O)N4CCN(CC)CC4)ccc3OCC)[nH]n12 [Vardenafil (Vivanza)] | 103 ± 2.4 | 104 ± 1.2 | 104 ± 3.8 | 104.8 ± 0.49 | 96.25 ± 0.9 | 97.2 ± 1.1 | 101 ± 2.4 | 103.3 ± 0.7 | 105 ± 1.5 | 104 ± 1.1 | 98.5 ± 4.4 | 98.6 ± 1.7
Clc1ccc(Nc2nnc(Cc3ccncc3)c3ccccc23)cc1 [Vatalanib] | 94.7 ± 6.8 | 102 ± 9.1 | 115 ± 1.4 | 108 ± 1.8 | 110 ± 2.7 | 117.2 ± 0.94 | 104 ± 1.1 | 106 ± 2 | 106 ± 2.4 | 105 ± 1.4 | 103 ± 2.8 | 110.66 ± 0.097
COc1ccc(C(CN(C)C)C2(O)CCCCC2)cc1 (stereo unspecified) [Venlafaxine HCl] | 74.8 ± 0.85 | 101 ± 2.7 | 96.3 ± 9.2 | 107 ± 5.2 | 91.33 ± 0.33 | 91.6 ± 2.6 | 85.8 ± 1.9 | 109.5 ± 0.37 | 101 ± 4.2 | 99.6 ± 1.8 | 96.1 ± 5 | 90.61 ± 0.47
COC[C@@H](c1ccc(C(F)(F)F)cc1)N1CCN(C2(C)CCN(C(=O)c3c(C)ncnc3C)CC2)C[C@@H]1C [Vicriviroc Malate] | 100.4 ± 0.12 | 106 ± 2.8 | 113 ± 2.9 | 108 ± 3.2 | 100 ± 1.5 | 100.24 ± 0.061 | 102 ± 3.4 | 99.95 ± 0.79 | 101 ± 2.1 | 99.04 ± 0.74 | 96.3 ± 1.4 | 97.62 ± 0.55
